# Assay results reported in patent US7314719B2, “Method for increasing productivity of secondary metabolite by conferring drug-resistant mutations” (priority 2001, dated 2008).
# Read-outs that look alike come from different tables or passages of the source.
# Experiments:
# [1] = system: Streptomyces lividans 66 and mutants; assay: Resistance level to rifampicin and streptomycin (Table 5); format: cell-based
# Text: A rifampicin-resistant mutant and a streptomycin-and rifampicin-resistant mutant of Streptomyces lividans 66 were produced according to a similar manner to that of Examples 1, 2 or 3, and the actinorhodin production was estimated.
# [2] = system: S. coelicolor 1147 and drug-resistant mutants; assay: Resistance level to antibiotics on GYM agar (Table 2); format: cell-based, Streptomyces coelicolor; settings: 4 days on GYM agar
# [3] = system: S. coelicolor 1147 (wild type) and mutants S-1, SG-1, SG-2; assay: MIC of antibiotics on GYM agar (screening of drug-resistant mutants); format: cell-based, Streptomyces coelicolor; settings: for MIC: 2 days of incubation on GYM agar; for Concentration at which growth was inhibited completely: GYM agar
# Description: The spontaneous streptomycin, gentamicin or rifampicin-resistant mutants of S. coelicolor were obtained as the colonies that grew within 7 days at 30° C. after spores (or cells) were spread on GYM agar (composition is the same as the above GYM agar) containing 5 μg streptomycin per ml or 1.0 μg of gentamicin per ml or 200 μg of rifampicin per ml, respectively (Growth of parental strain was inhibited completely with 1 μg of streptomycin per ml, 0.1 μg of gentamicin per ml or 10 μg of rifampicin per ml). The single colonies grew on screening plates were picked out and inoculated to R4 agar containing 1% of glucose, 0.1% of yeast extract, 0.001% of Casamino Acids, 0.3% of proline, 1% of MgCl2·6H2O, 0.4% of CaCl2·2H2O, 0.002% of K2SO4, 0.56% of TES [N-Tris (hydroxymethyl)methyl-2-aminoethanesulfonic acid], 0.2% of trace elements solution (as described for R2YE medium) and 2% of agar (before adding agar, adjusted to pH 7.2). The R4 plates were incubated at 30° C. for 6 days and the amount of blue pigment actinorhodin produced was compared among wild type strain and mutants, and selected the over-producers among the mutants. Then, the mutants with over-producing actinorhodin were inoculated into R4 liquid medium (composition is the same as the R4 agar, but no agar) in 25 ml of test tubes containing 5 ml medium on an orbital shaker at 30° C., 350 rpm. After incubation for 6 days, 1 ml culture samples were taken and adjusted pH to 8.0. After centrifugation at 1100 g for 5 min., actinorhodin production in supernatants was assayed by measurement of the optical density of supernatants at 633 nm. The highest productivity detected reached 1.6-fold for gentamicin-resistant mutants, 1.8-fold for streptomycin-resistant mutants and 3.0-fold for rifampicin-resistant mutants. The frequencies for such high producers were 5%, 6% and 10%, respectively (see Table 1 and FIG. 7).
# The spontaneous geneticin, gentamicin or rifampicin-resistant mutants of S-1 were obtained as colonies that grew on GYM agar containing 2.5 μg of geneticin per ml or 2.5 μg of gentamicin per ml or 200 μg of rifampicin per ml. (Growth of S-1 strain was inhibited completely with 0.5 μg of geneticin per ml, 0.5 μg of gentamicin per ml or 10 μg of rifampicin per ml.). Actinorhodin productivity of mutants was examined using R4 agar plates and R4 liquid medium.
# The spontaneous rifampicin-resistant mutants of SG-1 and SG-2 strains were obtained as colonies that grew on GYM agar containing 200 μg of rifampicin per ml.
# [4] = system: Bacillus cereus No. 2045 and mutants; assay: Resistance level to gentamicin and rifampicin (Table 4); format: cell-based
# Description: A gentamicin-resistant mutant and a rifampicin-and gentamicin-resistant mutant of Bacillus cereus No. 2045 were produced according to a similar manner to that of Examples 1, 2 or 3. Those mutants were precultured in bouillon medium for 10 h. Cells (0.1 ml) were inoculated into 5 ml of production medium consisting of (per liter) 20 g of polypeptone, 20 g of corn steep liquor, and 5 g of NaCl (adjusted to pH 7.5 with NaOH) for 2 days at 30° C.
# [5] = strain S. lividans 66, wild-type
# [6] = Streptomyces coelicolor, 48 h, strain S. coelicolor 1147 (wild type), read-out: MIC
# [7] = parental strain (S. coelicolor wild type)
# [8] = strain B. cereus No. 2045, wild-type
compound,measurement,setting,value
"[H]/N=C(/N)N[C@H]1[C@H](O)[C@@H](O)[C@H](O[C@@H]2O[C@@H](C)[C@](O)(C=O)[C@H]2O[C@@H]2O[C@@H](CO)[C@H](O)[C@@H](O)[C@@H]2NC)[C@@H](N/C(N)=N\[H])[C@@H]1O [Streptomycin, streptomycin]",Resistance level,[1]; S. lividans strain SR-1 (rif),1.0 µg/mL
same,Resistance level,[1]; S. lividans strain SR-2 (rif),0.8 µg/mL
same,Resistance level,[1]; S. lividans strain SR-3 (rif),1.0 µg/mL
same,Resistance level,[1]; [5],1.0 µg/mL
same,Resistance level,[1]; strain SRS-1 (rif-str),50 µg/mL
same,Resistance level,[1]; strain SRS-2 (rif-str),120 µg/mL
same,Resistance level,[1]; strain SRS-3 (rif-str),100 µg/mL
same,Resistance level,[2]; S. coelicolor strain SR-1,50 µg/mL
same,Resistance level,[2]; S. coelicolor strain SR-2,50 µg/mL
same,Resistance level,[2]; S. coelicolor strain SR-3,50 µg/mL
same,Resistance level,[2]; strain 1147 (wild type),1 µg/mL
same,Resistance level,[2]; strain S-1,100 µg/mL
same,Resistance level,[2]; strain S-2,5 µg/mL
same,Resistance level,[2]; strain S-3,10 µg/mL
same,Resistance level,[2]; strain SG-1,100 µg/mL
same,Resistance level,[2]; strain SG-2,100 µg/mL
same,Resistance level,[2]; strain SG-3,100 µg/mL
same,Resistance level,[2]; strain SGR-1,100 µg/mL
same,Resistance level,[2]; strain SGR-2,100 µg/mL
same,Resistance level,[2]; strain SGR-3,50 µg/mL
same,Resistance level,[2]; strain SGR-4,50 µg/mL
same,Resistance level,[2]; strain SGR-5,50 µg/mL
same,Resistance level,[2]; strain SGR-6,100 µg/mL
same,Resistance level,[2]; strain SGe-1,100 µg/mL
same,Resistance level,[2]; strain SGe-2,100 µg/mL
same,Resistance level,[2]; strain SGe-3,100 µg/mL
same,Resistance level,[2]; strain SR-4,100 µg/mL
same,Resistance level,[2]; strain SR-5,100 µg/mL
same,Resistance level,[2]; strain SR-6,50 µg/mL
same,Resistance level,[2]; strain SR-7,50 µg/mL
same,MIC,[3]; [6],1 µg/mL
same,Concentration at which growth was inhibited completely,[3]; [7],1 μg per ml
"CN[C@@H]1[C@@H](O)[C@@H](O[C@@H]2[C@@H](O)[C@H](O[C@H]3O[C@H]([C@@H](C)O)[C@@H](O)[C@H](O)[C@H]3N)[C@@H](N)C[C@H]2N)OC[C@]1(C)O [Geneticin, geneticin]",Resistance level,[2]; strain 1147 (wild type),0.2 µg/mL
same,Resistance level,[2]; strain SGe-1,0.5 µg/mL
same,Resistance level,[2]; strain SGe-2,1 µg/mL
same,Resistance level,[2]; strain SGe-3,1 µg/mL
same,Concentration at which growth was inhibited completely,[3]; S-1 strain,0.5 μg per ml
same,MIC,"[3]; Streptomyces coelicolor, 48 h, strain S-1 (str), read-out: MIC",0.2 µg/mL
"CO[C@H]1/C=C/O[C@@]2(C)Oc3c(C)c(O)c4c(O)c(c(/C=N/N5CCN(C)CC5)c(O)c4c3C2=O)NC(=O)/C(C)=C\C=C\[C@H](C)[C@H](O)[C@@H](C)[C@@H](O)[C@@H](C)[C@H](OC(C)=O)[C@@H]1C [Rifampicin, rifampicin]",Resistance level,[1]; S. lividans strain SR-1 (rif),200 µg/mL
same,Resistance level,[1]; S. lividans strain SR-2 (rif),400 µg/mL
same,Resistance level,[1]; S. lividans strain SR-3 (rif),400 µg/mL
same,Resistance level,[1]; [5],10 µg/mL
same,Resistance level,[1]; strain SRS-1 (rif-str),400 µg/mL
same,Resistance level,[1]; strain SRS-2 (rif-str),350 µg/mL
same,Resistance level,[1]; strain SRS-3 (rif-str),400 µg/mL
same,Resistance level,[4]; [8],1.0 µg/mL
same,Resistance level,[4]; strain BG-1 (gen),1.0 µg/mL
same,Resistance level,[4]; strain BG-2 (gen),0.8 µg/mL
same,Resistance level,[4]; strain BG-3 (gen),1.0 µg/mL
same,Resistance level,[4]; strain BGR-1 (gen-rif),100 µg/mL
same,Resistance level,[4]; strain BGR-2 (gen-rif),120 µg/mL
same,Resistance level,[4]; strain BGR-3 (gen-rif),150 µg/mL
same,Resistance level,[2]; S. coelicolor strain SR-1,50 µg/mL
same,Resistance level,[2]; S. coelicolor strain SR-2,150 µg/mL
same,Resistance level,[2]; S. coelicolor strain SR-3,400 µg/mL
same,Resistance level,[2]; strain 1147 (wild type),10 µg/mL
same,Resistance level,[2]; strain R-1,400 µg/mL
same,Resistance level,[2]; strain R-2,400 µg/mL
same,Resistance level,[2]; strain R-3,400 µg/mL
same,Resistance level,[2]; strain SGR-1,400 µg/mL
same,Resistance level,[2]; strain SGR-2,400 µg/mL
same,Resistance level,[2]; strain SGR-3,300 µg/mL
same,Resistance level,[2]; strain SGR-4,400 µg/mL
same,Resistance level,[2]; strain SGR-5,400 µg/mL
same,Resistance level,[2]; strain SGR-6,300 µg/mL
same,Resistance level,[2]; strain SR-4,400 µg/mL
same,Resistance level,[2]; strain SR-5,400 µg/mL
same,Resistance level,[2]; strain SR-6,400 µg/mL
same,Resistance level,[2]; strain SR-7,400 µg/mL
same,Concentration at which growth was inhibited completely,[3]; S-1 strain,10 μg per ml
same,Concentration at which growth was inhibited completely,[3]; SG-1 strain,10 μg per ml
same,Concentration at which growth was inhibited completely,[3]; SG-2 strain,10 μg per ml
same,MIC,[3]; [6],10 µg/mL
same,Concentration at which growth was inhibited completely,[3]; [7],10 μg per ml
same,MIC,[3]; strain S-1 (str),Rifampicin(10) μg/ml
same,MIC,[3]; strain SG-1 (str-gen),Rifampicin(10) μg/ml
same,MIC,[3]; strain SG-2 (str-gen),Rifampicin(10) μg/ml
gentamicin,Resistance level,[4]; [8],0.8 µg/mL
same,Resistance level,[4]; strain BG-1 (gen),4.0 µg/mL
same,Resistance level,[4]; strain BG-2 (gen),4.0 µg/mL
same,Resistance level,[4]; strain BG-3 (gen),4.5 µg/mL
same,Resistance level,[4]; strain BGR-1 (gen-rif),4.5 µg/mL
same,Resistance level,[4]; strain BGR-2 (gen-rif),5.0 µg/mL
same,Resistance level,[4]; strain BGR-3 (gen-rif),5.0 µg/mL
same,Resistance level,[2]; strain 1147 (wild type),0.1 µg/mL
same,Resistance level,[2]; strain G-1,0.3 µg/mL
same,Resistance level,[2]; strain G-2,0.3 µg/mL
same,Resistance level,[2]; strain G-3,0.3 µg/mL
same,Resistance level,[2]; strain SG-1,0.3 µg/mL
same,Resistance level,[2]; strain SG-2,0.3 µg/mL
same,Resistance level,[2]; strain SG-3,0.3 µg/mL
same,Resistance level,[2]; strain SGR-1,0.2 µg/mL
same,Resistance level,[2]; strain SGR-2,0.2 µg/mL
same,Resistance level,[2]; strain SGR-3,0.3 µg/mL
same,Resistance level,[2]; strain SGR-4,0.2 µg/mL
same,Resistance level,[2]; strain SGR-5,0.5 µg/mL
same,Resistance level,[2]; strain SGR-6,0.3 µg/mL
same,Concentration at which growth was inhibited completely,[3]; S-1 strain,0.5 μg per ml
same,Concentration at which growth was inhibited completely,[3]; [7],0.1 μg per ml
same,MIC,[3]; strain S-1 (str),Gentamicin(0.1) μg/ml
same,MIC,[3]; strain S. coelicolor 1147 (wild type),Gentamicin (0.1) μg/ml
